Measurements taken from PubChem BioAssay (NCI).
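All cell lines were grown in 96-well plates and treated with compound for 48 hours. TGI: total growth inhibition.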

Tests used:
Assay in all cases: growth of human tumour cells (NCI), 48 h
[1] = tested on: NCI-H226 lung
[2] = tested on: BT-549 breast
[3] = tested on: OVCAR-8 ovarian
[4] = tested on: UO-31 renal
[5] = tested on: NCI-H460 lung
[6] = tested on: NCI/ADR-RES ovarian
[7] = tested on: A549 NSCLC
[8] = tested on: SK-OV-3 ovarian
[9] = tested on: HL-60(TB) leukemia
[10] = tested on: MOLT-4 leukemia
[11] = tested on: UACC-257 melanoma
[12] = tested on: MDA-N
[13] = tested on: CAKI-1 renal
[14] = tested on: HT29 colon
[15] = tested on: RXF 393 renal
[16] = tested on: HCT-15 colon
[17] = tested on: SK-MEL-5 melanoma
[18] = tested on: SK-MEL-2 melanoma
[19] = tested on: SF-539 CNS
[20] = tested on: PC-3 prostate
[21] = tested on: HOP-92 NSCLC
[22] = tested on: SF-295 CNS
[23] = tested on: M14 melanoma
[24] = tested on: SR leukemia
[25] = tested on: DU-145 prostate
[26] = tested on: SNB-75 CNS
[27] = tested on: T-47D breast
[28] = tested on: SF-268 CNS
[29] = tested on: OVCAR-4 ovarian
[30] = tested on: MALME-3M melanoma
[31] = tested on: UACC-62 melanoma
[32] = tested on: OVCAR-3 ovarian
[33] = tested on: IGROV1 ovarian
[34] = tested on: TK-10 renal
[35] = tested on: SK-MEL-28 melanoma
[36] = tested on: MDA-MB-231 breast
[37] = tested on: EKVX NSCLC
[38] = tested on: NCI-H23 lung
[39] = tested on: SW-620 colon
[40] = tested on: MDA-MB-435
[41] = tested on: MCF7 breast
[42] = tested on: HCT-116 colon
[43] = tested on: COLO 205 colon
[44] = tested on: OVCAR-5 ovarian
[45] = tested on: LOX IMVI melanoma
[46] = tested on: HOP-62 NSCLC
[47] = tested on: HCC-2998 colon
[48] = tested on: CCRF-CEM leukemia
[49] = tested on: K-562 leukemia
[50] = tested on: A498 renal
[51] = tested on: U251 CNS
[52] = tested on: HS 578T breast
[53] = tested on: SN12C renal
[54] = tested on: 786-0 renal
[55] = tested on: KM12 colon
[56] = tested on: RPMI-8226 leukemia
[57] = tested on: ACHN renal
[58] = tested on: SNB-19 CNS

Molecule `Cc1ccc(NN=NCCCCN=NNc2ccc(C)cc2)cc1` has a TGI [1] of over 100 µM, a TGI [2] of over 100 µM and a TGI [3] of over 100 µM. The TGI [4] was 2.1 µM, the TGI [5] was over 100 µM and the TGI [6] was over 100 µM. The TGI [7] was over 100 µM, the TGI [8] was over 100 µM and the TGI [9] was 30.3 µM. For the same molecule, the TGI [10] was over 100 µM, the TGI [11] was over 100 µM and the TGI [12] was over 100 µM. It also gave a TGI [13] of over 100 µM, a TGI [14] of over 100 µM and a TGI [15] of over 100 µM. The TGI [16] was over 100 µM, the TGI [17] was over 100 µM and the TGI [18] was over 100 µM. The TGI [19] was over 100 µM, the TGI [20] was over 100 µM and the TGI [21] was over 100 µM. It also gave a TGI [22] of over 100 µM, a TGI [23] of over 100 µM and a TGI [24] of over 100 µM. The TGI [25] was over 100 µM, the TGI [26] was over 100 µM and the TGI [27] was over 100 µM. For the same molecule, the TGI [28] was over 100 µM, the TGI [29] was over 100 µM and the TGI [30] was over 100 µM. The TGI [31] was over 100 µM, the TGI [32] was over 100 µM and the TGI [33] was over 100 µM. The TGI [34] was 17.9 µM, the TGI [35] was over 100 µM and the TGI [36] was over 100 µM. It also gave a TGI [37] of over 100 µM, a TGI [38] of 81.2 µM and a TGI [39] of over 100 µM. It also gave a TGI [40] of over 100 µM, a TGI [41] of over 100 µM and a TGI [42] of over 100 µM. For the same molecule, the TGI [43] was over 100 µM, the TGI [44] was over 100 µM and the TGI [45] was over 100 µM. The TGI [46] was over 100 µM, the TGI [47] was over 100 µM and the TGI [48] was 98.4 µM. It also gave a TGI [49] of over 100 µM, a TGI [50] of over 100 µM and a TGI [51] of over 100 µM. For the same molecule, the TGI [52] was over 100 µM and the TGI [53] was over 100 µM.
With `CC(=O)/C(N=Nc1ccc(-n2c(C)nc3ccccc3c2=O)cc1)=C(/C)O` the TGI [1] was over 100 µM, the TGI [2] was over 100 µM and the TGI [54] was over 100 µM. It also gave a TGI [3] of over 100 µM, a TGI [4] of over 100 µM and a TGI [5] of over 100 µM. For the same molecule, the TGI [6] was over 100 µM, the TGI [7] was over 100 µM and the TGI [55] was over 100 µM. It also gave a TGI [8] of over 100 µM, a TGI [9] of over 100 µM and a TGI [10] of over 100 µM. The TGI [11] was over 100 µM, the TGI [12] was over 100 µM and the TGI [13] was over 100 µM. For the same molecule, the TGI [56] was over 100 µM, the TGI [57] was over 100 µM and the TGI [14] was over 100 µM. It also gave a TGI [16] of over 100 µM, a TGI [17] of over 100 µM and a TGI [18] of over 100 µM. For the same molecule, the TGI [19] was over 100 µM, the TGI [20] was over 100 µM and the TGI [21] was over 100 µM. It also gave a TGI [22] of over 100 µM, a TGI [23] of over 100 µM and a TGI [24] of over 100 µM. The TGI [25] was over 100 µM, the TGI [26] was over 100 µM and the TGI [27] was over 100 µM. For the same molecule, the TGI [28] was over 100 µM, the TGI [58] was over 100 µM and the TGI [31] was over 100 µM. For the same molecule, the TGI [32] was over 100 µM, the TGI [33] was over 100 µM and the TGI [34] was over 100 µM. For the same molecule, the TGI [35] was over 100 µM, the TGI [36] was over 100 µM and the TGI [37] was over 100 µM. The TGI [38] was over 100 µM, the TGI [39] was over 100 µM and the TGI [40] was over 100 µM. The TGI [41] was over 100 µM, the TGI [42] was over 100 µM and the TGI [43] was over 100 µM. It also gave a TGI [44] of over 100 µM, a TGI [45] of over 100 µM and a TGI [46] of over 100 µM. The TGI [48] was over 100 µM, the TGI [49] was over 100 µM and the TGI [50] was over 100 µM. The TGI [51] was over 100 µM, the TGI [52] was over 100 µM and the TGI [53] was over 100 µM.
`NCCN1C(=O)c2cc(Cl)c(Cl)cc2C1(O)c1ccc(Cl)cc1` (stereo not drawn) showed a TGI [2] of 13.4 µM, a TGI [54] of 2.96 µM and a TGI [3] of 3.92 µM. For the same molecule, the TGI [4] was 17.2 µM, the TGI [5] was 3.64 µM and the TGI [6] was 7.25 µM. It also gave a TGI [7] of 4.76 µM, a TGI [55] of 4.17 µM and a TGI [8] of 26.3 µM. It also gave a TGI [9] of 3.44 µM, a TGI [10] of 5.28 µM and a TGI [11] of 3.47 µM. The TGI [12] was 3.47 µM, the TGI [13] was 7.02 µM and the TGI [56] was 5.39 µM. It also gave a TGI [57] of 4.75 µM, a TGI [14] of 3.81 µM and a TGI [15] of 3.06 µM. For the same molecule, the TGI [16] was 5.33 µM, the TGI [17] was 2.99 µM and the TGI [18] was 3.63 µM. It also gave a TGI [19] of 3.1 µM, a TGI [20] of 19.3 µM and a TGI [21] of 12.5 µM. It also gave a TGI [22] of 3.9 µM, a TGI [23] of 3.23 µM and a TGI [24] of 3.96 µM. For the same molecule, the TGI [25] was 6.81 µM, the TGI [26] was 8.26 µM and the TGI [27] was 4.55 µM. For the same molecule, the TGI [28] was 6.65 µM, the TGI [58] was 7.73 µM and the TGI [29] was 4.24 µM. It also gave a TGI [30] of 3.49 µM, a TGI [31] of 3.25 µM and a TGI [32] of 4.74 µM. For the same molecule, the TGI [33] was 4.89 µM, the TGI [34] was 3.53 µM and the TGI [35] was 3.21 µM. For the same molecule, the TGI [36] was 3.75 µM, the TGI [37] was 6.75 µM and the TGI [38] was 6.78 µM. The TGI [39] was 3.7 µM, the TGI [40] was 3.13 µM and the TGI [41] was 3.73 µM. It also gave a TGI [42] of 3.09 µM, a TGI [43] of 3.02 µM and a TGI [44] of 12.2 µM. The TGI [45] was 3.28 µM, the TGI [46] was 4.21 µM and the TGI [48] was 10.1 µM. For the same molecule, the TGI [49] was 4.09 µM, the TGI [50] was 10.2 µM and the TGI [51] was 3.17 µM. For the same molecule, the TGI [52] was 8.44 µM and the TGI [53] was 13.4 µM.
